# Data reported in patent US12594285B2, “Compositions and methods for protecting against airborne pathogens and irritants” (APPLIED BIOLOGICAL LABORATORIES, INC., priority 2016, dated 2026).
# Legend:
# [1] = tested on: MucilAir™ 3D model of human airway epithelium infected with Rhinovirus A16; assay: TEER tissue integrity, MucilAir inoculated with Rhinovirus A16 (Example 4); details: toxic positive control, 10% Triton X-100, after cell damage
# [2] = tested on: Influenza A H1N1 (clinical strain: A/California/7/09); assay: Apical Influenza replication by quantitative RT-PCR (Example 5); format: cell-based; details: 3.5, 24 and 48 hours pi; Oseltamivir 10 μM in basal medium
# [3] = tested on: Human Rhinovirus A16 (clinical strain: QCHRV.16); assay: Apical Rhinovirus replication by quantitative RT-PCR (Example 4); format: cell-based; details: 3.5, 24 and 48 hours pi; formulations applied apically at 0, 3.5 and 24 h; Rupintrivir 5 μM in basal medium
# [4] = tested on: Human Rhinovirus A16 (clinical strain: QCHRV.16); assay: Apical Rhinovirus replication by quantitative RT-PCR (Example 6); format: cell-based; details: Example 6; Rupintrivir 5 μM in basal medium; 3.5, 24 and 48 hours pi
molecule,measurement,setting,value
Triton X-100,TEER,[1],below 100 Ωcm^2
CCOC(=O)C1=C[C@@H](OC(CC)CC)[C@H](NC(C)=O)[C@@H](N)C1 [Oseltamivir],"Influenza A H1N1 replication (genome copy number, apical washes)",[2],inhibited
CCOC(=O)/C=C/[C@H](C[C@@H]1CCNC1=O)NC(=O)[C@@H](CC(=O)[C@@H](NC(=O)c1cc(C)on1)C(C)C)Cc1ccc(F)cc1 [Rupintrivir],"Rhinovirus A16 replication (genome copy number, apical washes)",[3],inhibited
same,"Rhinovirus A16 replication (genome copy number, apical washes)",[4],inhibited
